Experimental data: patent US20130190375A1, “CARBOXAMIDES” (BAYER CROPSCIENCE AG, priority 2005, published 2013)

These molecules were tested on Phakopsora pachyrhizi (assay: Soya bean rust control test/spray application). Settings: active compound application rate 100 ppm; sprayed one day before inoculation; evaluated 14 days after inoculation.
Assay type: in vivo, Phakopsora pachyrhizi on soya beans (cultivar: Enrei)
Description: 5 parts by weight of carboxamide of the formula (I), 142.4 parts by weight of acetone and 7.5 parts by weight of emulsifier (polyoxyethylene alkylphenyl ether) are mixed and adjusted with water to the desired concentration.
Soya beans (cultivar: Enrei) were cultivated in plastic containers having a diameter of 7.5 cm. In each case 3 containers, 6 ml of the test substance (preparation as described above) were sprayed onto the seedlings which had reached the 2.3 leaf stage. One day after spraying, the leaves were inoculated with an urediniospore suspension (1×10^5 urediniospores/ml) of Phakopsora pachyrhizi. 14 days after the inoculation, the degree of infection for each container was evaluated and the efficacy was calculated. The phytotoxicity was also monitored.

| Molecule | Efficacy in % [%] |
| --- | --- |
| 3-(difluoromethyl)-N-[2-(1,3-dimethylbutyl)-4-fluorophenyl]-1-methyl-1H-pyrazole-4-carboxamide [(38)] | 95 |
| Cc1nn(C)c(F)c1C(=O)Nc1ccccc1C(C)CC(C)C (stereo not shown) [(2), N-[2-(1,3-dimethylbutyl)phenyl]-5-fluoro-1,3-dimethyl-1H-pyrazole-4-carboxamide] | 100 |
| CC(C)CC(C)c1ccccc1NC(=O)c1c(C(F)(F)F)nn(C)c1F (stereo not shown) [(5), 3-(trifluoromethyl)-N-[2-(1,3-dimethylbutyl)phenyl]-5-fluoro-1-methyl-1H-pyrazole-4-carboxamide] | 80 |
| Cn1cc(C(=O)Nc2ccc(F)cc2-c2ccc(Cl)c(Cl)c2)c(C(F)F)n1 [(21), N-(3′,4′-dichloro-5-fluoro-1,1′-biphenyl-2-yl)-3-(difluoromethyl)-1-methyl-1H-pyrazole-4-carboxamide] | 50 |
| Cn1cc(C(=O)Nc2ccccc2-c2ccc(Cl)cc2)c(I)n1 [(33), N-(4′-chlorobiphenyl-2-yl)-3-iodo-1-methyl-1H-pyrazole-4-carboxamide] | 50 |
| Cn1cc(C(=O)Nc2ccccc2CCC(C)(C)C)c(C(F)F)n1 [(35), 3-(difluoromethyl)-N-[2-(3,3-dimethylbutyl)phenyl]-1-methyl-1H-pyrazole-4-carboxamide] | 100 |
| Cc1nn(C)c(F)c1C(=O)Nc1ccccc1CCC(C)(C)C [(36), N-[2-(3,3-dimethylbutyl)phenyl]-5-fluoro-1,3-dimethyl-1H-pyrazole-4-carboxamide] | 100 |
| Cc1nc(C(F)F)c(C(=O)Nc2ccsc2CC[Si](C)(C)C)s1 [(39), 4-(difluoromethyl)-2-methyl-N-{2-[2-(trimethylsilyl)ethyl]-3-thienyl}-1,3-thiazole-5-carboxamide] | 80 |
| N-[3′-fluoro-4′-(trifluoromethyl)biphenyl-2-yl]-3-iodo-1-methyl-1H-pyrazole-4-carboxamide [(37)] | 50 |

Same assay, conditions: active compound application rate 250 ppm; sprayed one day before inoculation; evaluated 14 days after inoculation

| Molecule | Efficacy in % [%] |
| --- | --- |
| Cn1cc(C(=O)Nc2ccc(F)cc2-c2ccc(Cl)c(Cl)c2)c(C(F)F)n1 [(21), N-(3′,4′-dichloro-5-fluoro-1,1′-biphenyl-2-yl)-3-(difluoromethyl)-1-methyl-1H-pyrazole-4-carboxamide] | 90 |
